Measurements published in patent US20230390319A1, “INTERFERON GENE STIMULATOR COMPOSITION COMPRISING INDOLIZINE DERIVATIVE AS ACTIVE INGREDIENT” (AJOU UNIVERSITY INDUSTRY-ACADEMIC COOPERATION FOUNDATION, priority 2020, published 2023).

Experiments:
[1] = system: THP-1 cells; assay: Cell viability assay (CellTiter Clo) in THP-1 cells; format: cell-based, Human; conditions: THP-1 cells, 20 μM of each compound, co-treated with cGAMP (1 μg/ml)
Experimental: (§1) Human monocytic THP-1 wild-type (WT) and STING knockout (KO) cell lines were obtained from InvivoGen. Cells were cultured in 1×RPMI 1640 medium containing 10% fetal bovine serum (FBS, Hyclone), 2.05 mM L-glutamine (Hyclone) and 1% penicillin (Corning) in a humidified incubator at 37° C. under 5% CO2.
Cells were analyzed using CellTiter Clo (CTG, Promega). […] was measured using a TECAN micro plate reader SPARK. Results were normalized to DMSO control.
(§2) THP-1 cells were co-treated with each of 86 indolizine derivatives and a very small amount of cGAMP (1 μg/ml), the immune response of the THP-1 cells was examined by ISRE reporter assay, and the cytotoxicity of co-treatment was also evaluated (Table 1). All results were compared by normalization to the reporter assay results obtained by treatment with cGAMP alone. […] Thus, Compound 42 was used in subsequent experiments.

[2] = system: ISRE reporter signal; assay: ISRE luciferase reporter assay, THP-1 cells co-treated with compound and cGAMP; format: cell-based, Human; conditions: THP-1 cells, 20 μM of each compound, co-treated with cGAMP (1 μg/ml), 24 hours
Experimental: as §1
To confirm immune responses, THP-1 cells were placed in 384-well plates (Grenier), and treated with each compound and cGAMP (1 μg/ml), and after 24 hours, ISRE activity was analyzed. QUANTI-Luc assay (InvivoGen) was performed using the cell culture supernatant to confirm the luciferase reporter gene signal. Fluorescent signals were measured using a TECAN micro plate reader SPARK, and the results were normalized to DMSO control.
as §2

Question: What does the source list for CN(C)c1ccc(-c2cc(C(=O)c3ccccc3)n3ccccc23)cc1 [Compound 50]?
Answer: Normalized cell viability [1]: 1.30; Normalized RU (relative unit of ISRE reporter signal) [2]: 1.18

Question: Which Normalized cell viability [1] does the source give for COc1ccc(C(=O)c2cc(-c3ccc(C(F)(F)F)cc3)c3ccccn23)cc1 [Compound 51] here?
Answer: 1.32

Question: And the “Normalized RU (relative unit of ISRE reporter signal)” value [2]?
Answer: 6.08

Question: How did the Normalized cell viability [1] turn out when COc1ccc(C(=O)c2cc(-c3ccc(C(C)=O)cc3)c3ccccn23)cc1 [Compound 52] was run?
Answer: 1.15

Question: What about the “Normalized RU (relative unit of ISRE reporter signal)” value [2] of the same compound?
Answer: 1.61

Question: What does the source list for COc1ccc(C(=O)c2cc(-c3ccccc3)c3ccccn23)cc1 [Compound 53]?
Answer: Normalized cell viability [1]: 1.18; Normalized RU (relative unit of ISRE reporter signal) [2]: 1.30

Question: COc1ccc(C(=O)c2cc(-c3ccc(OC)cc3)c3ccccn23)cc1 [Compound 54] was tested. Which Normalized cell viability [1] did it give?
Answer: 1.16

Question: And the “Normalized RU (relative unit of ISRE reporter signal)” value [2]?
Answer: 1.51

Question: With COc1ccc(C(=O)c2cc(-c3ccc(N(C)C)cc3)c3ccccn23)cc1 [Compound 55] as the compound, how does the Normalized cell viability [1] read?
Answer: 1.24

Question: And the “Normalized RU (relative unit of ISRE reporter signal)” value [2]?
Answer: 1.65

Question: CCN(CC)c1ccc(C(=O)c2cc(-c3ccc(C(F)(F)F)cc3)c3ccccn23)cc1 [Compound 56] was tested. Which Normalized cell viability [1] did it give?
Answer: 1.23

Question: What about the “Normalized RU (relative unit of ISRE reporter signal)” value [2] of the same compound?
Answer: 1.40

Question: Which results are given for CCN(CC)c1ccc(C(=O)c2cc(-c3ccc(C(C)=O)cc3)c3ccccn23)cc1 [Compound 57]?
Answer: Normalized cell viability [1]: 1.40; Normalized RU (relative unit of ISRE reporter signal) [2]: 0.93

Question: What does the source list for CCN(CC)c1ccc(C(=O)c2cc(-c3ccccc3)c3ccccn23)cc1 [Compound 58]?
Answer: Normalized cell viability [1]: 1.01; Normalized RU (relative unit of ISRE reporter signal) [2]: 0.66

Question: Which results are given for CCN(CC)c1ccc(C(=O)c2cc(-c3ccc(OC)cc3)c3ccccn23)cc1 [Compound 59]?
Answer: Normalized cell viability [1]: 1.09; Normalized RU (relative unit of ISRE reporter signal) [2]: 1.27

Question: With CCN(CC)c1ccc(C(=O)c2cc(-c3ccc(N(C)C)cc3)c3ccccn23)cc1 [Compound 60] as the compound, how does the Normalized cell viability [1] read?
Answer: 1.28

Question: What about the “Normalized RU (relative unit of ISRE reporter signal)” value [2] of the same compound?
Answer: 1.25

Question: How did the Normalized cell viability [1] turn out when CC(=O)c1ccn2c(C(=O)c3ccccc3)cc(-c3ccncc3)c2c1 [Compound 61] was run?
Answer: 1.11

Question: And the “Normalized RU (relative unit of ISRE reporter signal)” value [2]?
Answer: 1.98

Question: With CC(=O)c1ccn2c(C(=O)c3ccccc3)cc(-c3ccc(C)c(N)c3)c2c1 [Compound 62] as the compound, how does the Normalized cell viability [1] read?
Answer: 1.23

Question: And the “Normalized RU (relative unit of ISRE reporter signal)” value [2]?
Answer: 2.86

Question: How did the Normalized cell viability [1] turn out when CC(=O)c1ccn2c(C(=O)c3ccccc3)cc(-c3ccc(N)cc3)c2c1 [Compound 63] was run?
Answer: 0.98

Question: What about the “Normalized RU (relative unit of ISRE reporter signal)” value [2] of the same compound?
Answer: 2.08

Question: Which results are given for CCN(CC)c1ccc(-c2cc(C(=O)c3ccccc3)n3ccc(C(C)=O)cc23)cc1 [Compound 64]?
Answer: Normalized cell viability [1]: 1.24; Normalized RU (relative unit of ISRE reporter signal) [2]: 1.13

Question: For CCCN(CCC)c1ccc(-c2cc(C(=O)c3ccccc3)n3ccc(C(C)=O)cc23)cc1 [Compound 65], which Normalized cell viability [1] is on record?
Answer: 1.25

Question: What about the “Normalized RU (relative unit of ISRE reporter signal)” value [2] of the same compound?
Answer: 1.13

Question: For CC(=O)c1ccn2c(C(=O)c3ccccc3)cc(-c3ccc(C(=O)O)cc3)c2c1 [Compound 66], which Normalized cell viability [1] is on record?
Answer: 1.32

Question: What about the “Normalized RU (relative unit of ISRE reporter signal)” value [2] of the same compound?
Answer: 1.16

Question: Which results are given for O=C(c1ccccc1)c1cc(-c2ccncc2)c2ccccn12 [Compound 67]?
Answer: Normalized cell viability [1]: 1.34; Normalized RU (relative unit of ISRE reporter signal) [2]: 2.03

Question: Which results are given for Cc1ccc(-c2cc(C(=O)c3ccccc3)n3ccccc23)cc1N [Compound 68]?
Answer: Normalized cell viability [1]: 1.17; Normalized RU (relative unit of ISRE reporter signal) [2]: 3.16

Question: Which Normalized cell viability [1] does the source give for Nc1ccc(-c2cc(C(=O)c3ccccc3)n3ccccc23)cc1 [Compound 69] here?
Answer: 1.19

Question: What about the “Normalized RU (relative unit of ISRE reporter signal)” value [2] of the same compound?
Answer: 2.47

Question: Which Normalized cell viability [1] does the source give for CCN(CC)c1ccc(-c2cc(C(=O)c3ccccc3)n3ccccc23)cc1 [Compound 70] here?
Answer: 1.19

Question: What about the “Normalized RU (relative unit of ISRE reporter signal)” value [2] of the same compound?
Answer: 1.21

Question: CCCN(CCC)c1ccc(-c2cc(C(=O)c3ccccc3)n3ccccc23)cc1 [Compound 71] was tested. Which Normalized cell viability [1] did it give?
Answer: 1.01

Question: What about the “Normalized RU (relative unit of ISRE reporter signal)” value [2] of the same compound?
Answer: 0.96

Question: For CC(=O)c1cc(-c2ccc(C(F)(F)F)cc2)c2cc(C(F)(F)F)ccn12 [Compound 73], which Normalized cell viability [1] is on record?
Answer: 0.78

Question: What about the “Normalized RU (relative unit of ISRE reporter signal)” value [2] of the same compound?
Answer: 1.54

Question: Which results are given for CC(=O)c1ccc(-c2cc(C(C)=O)n3ccc(C(F)(F)F)cc23)cc1 [Compound 74]?
Answer: Normalized cell viability [1]: 0.75; Normalized RU (relative unit of ISRE reporter signal) [2]: 2.06

Question: With CC(=O)c1cc(-c2ccccc2)c2cc(C(F)(F)F)ccn12 [Compound 75] as the compound, how does the Normalized cell viability [1] read?
Answer: 1.25

Question: What about the “Normalized RU (relative unit of ISRE reporter signal)” value [2] of the same compound?
Answer: 1.76

Question: What does the source list for COc1ccc(-c2cc(C(C)=O)n3ccc(C(F)(F)F)cc23)cc1 [Compound 76]?
Answer: Normalized cell viability [1]: 1.14; Normalized RU (relative unit of ISRE reporter signal) [2]: 2.02

Question: Which results are given for CC(=O)c1cc(-c2ccc(N(C)C)cc2)c2cc(C(F)(F)F)ccn12 [Compound 77]?
Answer: Normalized cell viability [1]: 1.28; Normalized RU (relative unit of ISRE reporter signal) [2]: 1.24

Question: What does the source list for CC(=O)c1ccn2c(C(C)=O)cc(-c3ccc(C(F)(F)F)cc3)c2c1 [Compound 78]?
Answer: Normalized cell viability [1]: 0.46; Normalized RU (relative unit of ISRE reporter signal) [2]: 2.43

Question: What does the source list for CC(=O)c1ccc(-c2cc(C(C)=O)n3ccc(C(C)=O)cc23)cc1 [Compound 79]?
Answer: Normalized cell viability [1]: 1.19; Normalized RU (relative unit of ISRE reporter signal) [2]: 3.80

Question: Which Normalized cell viability [1] does the source give for CC(=O)c1ccn2c(C(C)=O)cc(-c3ccccc3)c2c1 [Compound 80] here?
Answer: 1.22

Question: What about the “Normalized RU (relative unit of ISRE reporter signal)” value [2] of the same compound?
Answer: 1.98

Question: With COc1ccc(-c2cc(C(C)=O)n3ccc(C(C)=O)cc23)cc1 [Compound 81] as the compound, how does the Normalized cell viability [1] read?
Answer: 1.17

Question: What about the “Normalized RU (relative unit of ISRE reporter signal)” value [2] of the same compound?
Answer: 2.27

Question: CC(=O)c1ccn2c(C(C)=O)cc(-c3ccc(N(C)C)cc3)c2c1 [Compound 82] was tested. Which Normalized cell viability [1] did it give?
Answer: 1.16

Question: What about the “Normalized RU (relative unit of ISRE reporter signal)” value [2] of the same compound?
Answer: 2.57

Question: Which results are given for CC(=O)c1cc(-c2ccc(C(F)(F)F)cc2)c2ccccn12 [Compound 83]?
Answer: Normalized cell viability [1]: 1.22; Normalized RU (relative unit of ISRE reporter signal) [2]: 0.98

Question: CC(=O)c1ccc(-c2cc(C(C)=O)n3ccccc23)cc1 [Compound 84] was tested. Which Normalized cell viability [1] did it give?
Answer: 1.10

Question: And the “Normalized RU (relative unit of ISRE reporter signal)” value [2]?
Answer: 2.37

Question: What does the source list for CC(=O)c1cc(-c2ccccc2)c2ccccn12 [Compound 85]?
Answer: Normalized cell viability [1]: 1.22; Normalized RU (relative unit of ISRE reporter signal) [2]: 2.90

Question: Which results are given for COc1ccc(-c2cc(C(C)=O)n3ccccc23)cc1 [Compound 86]?
Answer: Normalized cell viability [1]: 1.22; Normalized RU (relative unit of ISRE reporter signal) [2]: 2.46

Question: CC(=O)c1cc(-c2ccc(N(C)C)cc2)c2ccccn12 [Compound 87] was tested. Which Normalized cell viability [1] did it give?
Answer: 1.30

Question: What about the “Normalized RU (relative unit of ISRE reporter signal)” value [2] of the same compound?
Answer: 2.59
